Reference: publication PMC3679140, “Synthesis of Indole Derived Protease-Activated Receptor 4 Antagonists and Characterization in Human Platelets” (PLoS ONE, 2013)

How the values were obtained:
[1] = system: thrombin mediated platelet GPIIbIIIa activation; assay: Flow cytometry: thrombin mediated GPIIbIIIa activation in washed platelets; assay type: cell-based, human; settings: for Addition of the effect of RWJ-56110 on thrombin and the effect of the compound on PAR1-AP: sum of separate inhibitory effects, 1 µM compound, 10 µM RWJ-56110
Method: (§1) Briefly, 60 µL of washed platelets at a concentration of 1.5×10^7 platelets/mL were added to polystyrene tubes. Anti-CD62P antibody or PAC-1 antibody were diluted (per manufacturer protocol) in Tyrode’s buffer containing 0.1% BSA. 40 µL of diluted antibody was added to the platelets and allowed to bind for 5 minutes. Platelets were pre-treated with indicated concentrations of antagonist or DMSO control for 5 minutes followed by addition of PAR1-AP or PAR4-AP for 10 minutes. Platelet activity was quenched by the addition ice cold 1.5% paraformaldehyde followed by dilution in 1X phosphate buffered saline. The final DMSO concentration was 0.5%. Platelets were stored up to 18 hours at 4°C before flow cytometric analysis. Analysis was carried out on a BD FACS Canto II (Franklin Lakes, NJ). Fluorescent intensity was determined for 100,000 events within the platelet gate. Data was collected and analyzed via FACS DiVa software.
(§2) 100% max response was determined for each individual as the DMSO treated control stimulated with either 200 µM PAR4-AP, 20 µM PAR1-AP, or 10 nM thrombin. Samples treated with antagonist were normalized as a percentage of the DMSO treated control. Normalized data was plotted in GraphPad PRISM v.5.0. Dose response curves and subsequent IC50 values were generated using the ‘log(inhibitor) vs. response variable slope’ parameter. Data plotted is mean±S.E.M. or mean±S.D.

PAR4 [2] = molecular target: T1, PAR4 (Homo sapiens, UniProt Q96RI0); assay: Flow cytometry: PAR4-AP mediated GPIIbIIIa activation (PAC-1 binding) in washed platelets; assay type: cell-based; settings: for IC50: 200 µM PAR4-AP, compound 5 min before, normalized to DMSO control, Figure 4; for Extent of antagonism of PAR4 mediated platelet response / GPIIbIIIa activation: maximal (200 µM) PAR4-AP, up to 10 µM compound
T1 construct: Human platelets express both PAR1 and PAR4; endogenous in cells; host or cells: washed human platelets from volunteer donors
T1 sequence (Q96RI0 18-385): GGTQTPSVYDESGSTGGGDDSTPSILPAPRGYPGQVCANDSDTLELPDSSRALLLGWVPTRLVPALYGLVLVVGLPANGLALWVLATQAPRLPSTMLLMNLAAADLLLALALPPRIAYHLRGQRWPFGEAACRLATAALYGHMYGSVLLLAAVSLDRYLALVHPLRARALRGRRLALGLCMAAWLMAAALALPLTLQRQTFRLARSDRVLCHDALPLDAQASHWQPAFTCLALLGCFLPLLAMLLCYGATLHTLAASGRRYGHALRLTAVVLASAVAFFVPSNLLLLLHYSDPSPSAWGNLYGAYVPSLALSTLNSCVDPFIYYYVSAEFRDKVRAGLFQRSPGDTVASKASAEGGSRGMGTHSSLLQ
Method: as §1, with “Platelet activity was quenched by the addition ice cold 1.5% paraformaldehyde followed by dilution in 1X phosphate buffered saline.” left out
as §2

PAR4 [3] = molecular target: T1, PAR4; assay: PAR4-AP mediated platelet aggregation (light transmittance); assay type: cell-based; settings: 200 µM PAR4-AP; compound 10 min before; Figure 6
Method: (§3) Briefly, washed human platelets were prepared to a final concentration of 2.0×10^8 platelets/mL in Tyrode’s buffer containing 0.1% BSA. Compounds or DMSO control were added 10 minutes prior to stimulation with either PAR1-AP or PAR4-AP. The final DMSO concentration was 0.1%. Light transmittance was recorded by a Chrono-Log Model 700 Aggregometer.
(§4) The percent of light transmitted as reported by the aggregometer was recorded in GraphPad PRISM v.5.0. 100% light transmission signifies full platelet aggregation.

PAR1 [4] = molecular target: T2, PAR1 (Homo sapiens, UniProt P25116); assay: Flow cytometry: PAR1-AP mediated GPIIbIIIa activation (PAC-1 binding) in washed platelets; assay type: cell-based; settings: 20 µM PAR1-AP
T2 construct: Human platelets express both PAR1 and PAR4; endogenous in cells; host or cells: washed human platelets from volunteer donors
T2 sequence (P25116 22-425): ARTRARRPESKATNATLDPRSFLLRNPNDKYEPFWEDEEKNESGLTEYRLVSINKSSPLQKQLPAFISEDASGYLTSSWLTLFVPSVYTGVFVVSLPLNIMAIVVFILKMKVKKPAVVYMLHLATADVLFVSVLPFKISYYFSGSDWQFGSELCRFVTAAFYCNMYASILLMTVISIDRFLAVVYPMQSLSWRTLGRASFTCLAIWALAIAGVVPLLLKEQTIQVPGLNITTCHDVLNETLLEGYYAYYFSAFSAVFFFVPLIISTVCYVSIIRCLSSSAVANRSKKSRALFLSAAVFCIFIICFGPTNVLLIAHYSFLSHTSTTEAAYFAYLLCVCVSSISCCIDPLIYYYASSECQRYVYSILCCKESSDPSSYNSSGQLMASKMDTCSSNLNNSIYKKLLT
Method: as §1, with “Platelet activity was quenched by the addition ice cold 1.5% paraformaldehyde followed by dilution in 1X phosphate buffered saline.” left out
as §2

PAR4 [5] = molecular target: T1, PAR4; assay: High-throughput platelet calcium mobilization assay (PAR4-AP stimulated); assay type: cell-based; settings: for Emax at 10 µM: 10 µM compound 6 min prior to 80 µM PAR4-AP, Figure 2D, read-out: PAR4 mediated platelet calcium mobilization, percent of the maximum response
Method: Washed human platelets were prepared via standard procedure and suspended in Tyrode’s buffer containing 0.1% BSA. Platelets were dye loaded for 1 hour with Fluo4-AM in calcium assay buffer (1X HBSS without calcium or magnesium, 20 mM HEPES, 2.5 mM probenecid, 1 mM EGTA, 0.1% BSA). The calcium assay buffer containing dye is mixed with platelets to yield a final concentration of 2.5 µg/mL Fluo4-AM and 1.0×10^8 platelets/mL. 60 µL of dye loaded platelets were added to each well of a NUNC 384 well plate black optical bottom plate (Thermo, Rochester, NY). Fluorescence measurements were recorded on a Functional Drug Screening System (FDSS) 6000, Hamamatsu (Hamamatsu, Japan) at 37°C. […] Compounds were injected by the FDSS and occurred simultaneously across each plate. Experiments reported were performed in triplicate, on the same plate, from the indicated number of donors. 480∶540 (ex:em) was measured each second for a total of 12 minutes. The final concentration of DMSO in the assay was 0.5%.
The difference between basal (defined as t0) and maximal relative fluorescence unit (RFU) values (ΔRFUs) for ex:em 480∶540 was determined for each well. The triplicate ΔRFU for DMSO treated control wells stimulated with 80 µM PAR4-AP was averaged and the average value ΔC was set to 100% max response for each plate. Each well was subsequently normalized as a percent of the ΔC control (value/ΔC×100). Normalized data was plotted in GraphPad PRISM v.5.0.

PAR1 [6] = molecular target: T2, PAR1; assay: PAR1-AP mediated platelet aggregation (light transmittance); assay type: cell-based; settings: 20 µM PAR1-AP; compound 10 min before; Figure 6
Method: as §3, §4

PAR4 [7] = molecular target: T1, PAR4; assay: Flow cytometry: PAR4-AP mediated P-selectin expression (anti-CD62P binding) in washed platelets; assay type: cell-based
Method: as §1, with “Platelet activity was quenched by the addition ice cold 1.5% paraformaldehyde followed by dilution in 1X phosphate buffered saline.” left out
as §2

PAR4 [8] = molecular target: T1, PAR4; design: method as in PMID 12083482; settings: cited from earlier work
[9] = 1 µM compound + 10 µM RWJ-56110, 10 nM thrombin

Row | SMILES | IC50 (PAR4 [2]) [nM] | Extent of antagonism of PAR4 mediated platelet response / GPIIbIIIa activation (PAR4 [2]) | Inhibition of PAR4 mediated platelet aggregation (PAR4 [3]) | Emax at 10 µM (PAR4 [5]) [%] | Reduction of thrombin mediated GPIIbIIIa activation in combination with RWJ-56110 [1, 9] [%] | Addition of the effect of RWJ-56110 on thrombin and the effect of the compound on PAR1-AP [1] [%] | also measured
1 | CCOC(=O)c1ccc(-c2cn(Cc3ccccn3)c3ccccc23)cc1 [Compound 3] | 1000 ± 1100 | fully antagonize | non-significantly | < 50 |  |  | Reduction of thrombin mediated GPIIbIIIa activation in combination with RWJ-56110 ([1]; 3.16 µM compound + 10 µM RWJ-56110, 10 nM thrombin): 14±2%; Reduction of PAR1 mediated GPIIbIIIa activation (PAR1 [4]; 3.16 µM compound): 7.2±1.3%
2 | CCOC(=O)c1ccc(-c2cn(Cc3ccccc3)c3ncccc23)cc1 [Compound 5] | 170 ± 1 | fully antagonize | significantly inhibit PAR4 | < 50 | 17±2 |  | Inhibition of PAR1 mediated platelet aggregation (PAR1 [6]): not PAR1 mediated platelet aggregation; Reduction of PAR1 mediated GPIIbIIIa activation (PAR1 [4]; 1 µM compound): 7.2±1.4%
3 | NCC[C@H](NC(=O)[C@H](Cc1ccc(F)c(F)c1)NC(=O)Nc1ccc2c(CN3CCCC3)cn(Cc3c(Cl)cccc3Cl)c2c1)C(=O)NCc1ccccc1 [RWJ-56110, reference compound] |  |  |  |  |  |  | Inhibition of thrombin mediated GPIIbIIIa activation, compound alone ([1]; 10 µM RWJ-56110 alone, 10 nM thrombin): 18.4±5.4%
4 | CCOC(=O)c1ccc(-c2nn(Cc3ccccc3)c3ccccc23)cc1 [YD-3, ethyl 4-(1-benzyl-1H-indazol-3-yl)benzoate, reference compound] | 26 ± 1 |  |  |  | 42.9±9.7 | 26.8±6.0 | IC50 (PAR4 [7]; 200 µM PAR4-AP, from raw mean fluorescent intensity values, Figure S4): 16.4 ± 1.1 nM; Mechanism of action against PAR4 (shift of PAR4-AP concentration response curve) (PAR4 [7]; P-selectin expression, twelve point PAR4-AP CRCs with increasing antagonist, Figure 7): competitive mechanism of action; Mechanism of action against PAR4 by platelet aggregation (PAR4 [8]): competitive in nature; Inhibition time course of PAR4-AP calcium mobilization (PAR4 [5]; 10 µM YD-3, increasing treatment times, then 80 µM PAR4-AP, Figure 2B): significant inhibition by YD-3 occurred as early as 1 minute
5 | CCOC(=O)c1ccc(-c2cn(Cc3ccccc3)c3ccccc23)cc1 [Compound 1] |  |  |  |  | 37.1±6.4 | 32.5±6.1 | 
